Values joined by “and” are separate entries in the source; they are usually repeats but may differ in a detail not shown here. Equal entries are not always repeated.
Assays:
[1] = molecular target: T1, Sirt1 (Homo sapiens, UniProt Q96EB6); experiment: fluorescence-based deacetylase assay with Z-Lys(acetyl)-AMC (ZMAL) substrate; type: biochemical; conditions: for Sirt1 inhibition: n.i. = no inhibition detected, tested at 100 µM, 50 µM and 10 µM
T1 construct: Expression and purification of Sirt1_133-747; made in house
T1 sequence (Q96EB6 133-747): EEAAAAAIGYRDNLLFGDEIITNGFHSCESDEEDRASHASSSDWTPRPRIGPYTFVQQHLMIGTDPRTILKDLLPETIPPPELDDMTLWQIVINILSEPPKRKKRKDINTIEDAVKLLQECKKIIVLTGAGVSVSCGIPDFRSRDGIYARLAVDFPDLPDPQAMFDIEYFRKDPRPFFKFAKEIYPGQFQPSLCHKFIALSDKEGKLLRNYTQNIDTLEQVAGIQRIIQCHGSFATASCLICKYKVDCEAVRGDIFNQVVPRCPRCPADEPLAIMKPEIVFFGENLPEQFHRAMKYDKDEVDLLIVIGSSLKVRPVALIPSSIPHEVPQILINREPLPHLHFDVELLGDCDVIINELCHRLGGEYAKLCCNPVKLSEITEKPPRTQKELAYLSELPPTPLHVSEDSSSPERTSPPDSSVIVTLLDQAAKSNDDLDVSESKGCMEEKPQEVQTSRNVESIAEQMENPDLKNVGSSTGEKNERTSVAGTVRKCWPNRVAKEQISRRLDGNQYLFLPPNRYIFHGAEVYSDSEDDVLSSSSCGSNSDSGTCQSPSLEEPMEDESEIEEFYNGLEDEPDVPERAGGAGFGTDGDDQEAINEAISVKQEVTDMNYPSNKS
Protocol: (§1) The influence on deacetylase activity of three human sirtuin isoforms (Sirt1–3) was determined in a fluorescence-based assay, using Z-Lys(acetyl)-AMC (ZMAL) as a substrate. Compared to the lead structure 2a, all compounds except 2e–h show increased inhibitory activity against Sirt2 (Table 1). […] Moreover, a slight increase in selectivity for Sirt2 and Sirt3 over Sirt1 could be observed for 2c, 4a and 4b. […] Though not photoswitchable, compounds 4a and 4b were synthesized to test the influence of a rigid conformation around the C=C double bond on sirtuin inhibition. […] A recently developed fluorescence polarization (FP)-based assay enables mapping of ligand binding to this specific binding site. For 2a an interaction with the selectivity pocket was already implied in the same work. Additionally performed docking studies proposed a binding mode in which 2a mimics the nicotinamide residue of NAD^+, whereas aromatic amino acid residues of the selectivity pocket stabilize the dimethylphenol ring. As photoisomerization in stilbenes and azo dyes is accompanied by a perpendicular twist of the phenyl ring towards the former molecular plane, we assumed that this conformational change should provoke a differential binding situation at least for the dimethylphenol residue in 2a. Unfortunately, binding of 2b and c could not be localised in the vicinity of the selectivity pocket of Sirt2, so that the binding pose remains unclear.
(§2) The photoswitchable diazeno compound 11 was subjected to biological evaluation to test the effect of photoisomerization on the inhibitory activity. The enzyme assay mixture containing 11 was exposed to 5 minutes of 365 nm radiation and compared with the results of a non-irradiated measurement. […] Unfortunately, 365 nm radiation turned out to have only minor effects on the IC50 values of 11 (Table 3).
(§3) Cloning, expression and purification of recombinant proteins: Expression and purification of Sirt1_133-747, Sirt2_56−356, and Sirt3_118−395 was carried out as described previously. Identity and purity were verified by SDS-PAGE [65]. Protein concentration was determined by the Bradford assay.
(§4) Bioassay: The inhibitory effect of compounds 2a–h, 4a/b, 8a and 11 on Sirt1–3 was detected via a previously reported fluorescence based assay. The synthetic substrate Z-Lys(acetyl)-AMC (ZMAL) is deacetylated by sirtuins, followed by tryptic digestion and thereby release of […], leading to a fluorescent readout. Inhibition was determined by comparing percentage substrate conversion to a DMSO control after subtraction of the blank fluorescence signal. All compounds were tested at 100 µM, 50 µM and 10 µM, respectively. […] IC50 values were calculated with OriginPro 9.0 G using a non-linear regression to fit the dose response curve. An enzyme-free blank control and a 100% conversion control using AMC instead of ZMAL were measured as well. Inhibition measurements were performed in biological duplicates for all compounds.

[2] = molecular target: T2, Sirt2 (Homo sapiens, UniProt Q8IXJ6); experiment: as above; type: biochemical; conditions: for IC50: mean ± SD of duplicate experiments, read-out: Sirt2 inhibition IC50; for inhibition at 10 µM / inhibition at 50 µM: percent inhibition relative to controls
T2 construct: Sirt2_56−356; made in house
T2 sequence (Q8IXJ6 56-356): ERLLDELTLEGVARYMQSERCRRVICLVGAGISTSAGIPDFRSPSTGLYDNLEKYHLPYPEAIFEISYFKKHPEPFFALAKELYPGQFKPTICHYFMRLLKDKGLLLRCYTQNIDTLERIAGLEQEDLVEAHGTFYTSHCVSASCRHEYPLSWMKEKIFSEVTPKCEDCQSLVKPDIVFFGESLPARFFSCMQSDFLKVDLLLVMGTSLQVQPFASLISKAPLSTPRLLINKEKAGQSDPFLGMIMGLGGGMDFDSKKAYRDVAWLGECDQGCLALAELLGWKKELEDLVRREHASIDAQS
Protocol: as §1, §2, §3, §4

[3] = molecular target: T3, Sirt3 (Homo sapiens, UniProt Q9NTG7); experiment: as above; type: biochemical; conditions: for IC50: mean ± SD of duplicate experiments, read-out: Sirt3 inhibition IC50; for inhibition at 50 µM / inhibition at 10 µM: percent inhibition relative to controls; for Sirt3 inhibition: n.i. = no inhibition detected, tested at 100 µM, 50 µM and 10 µM
T3 construct: Sirt3_118−395; made in house
T3 sequence (Q9NTG7 118-395): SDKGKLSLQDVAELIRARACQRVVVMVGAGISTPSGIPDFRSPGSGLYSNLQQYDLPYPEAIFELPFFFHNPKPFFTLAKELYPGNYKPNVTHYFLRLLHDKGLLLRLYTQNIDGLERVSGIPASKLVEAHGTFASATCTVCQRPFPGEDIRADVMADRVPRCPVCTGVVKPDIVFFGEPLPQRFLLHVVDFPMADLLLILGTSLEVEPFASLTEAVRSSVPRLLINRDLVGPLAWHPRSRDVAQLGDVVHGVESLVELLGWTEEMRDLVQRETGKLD
Protocol: as §1, §2, §3, §4

[4] = E→Z photoisomerization of azastilbenes under 254 nm irradiation, proton NMR analysis; type: physicochemical; conditions: after 100 minutes of 254 nm irradiation, 10 mM in methanol
Protocol: Photochemistry of compounds 2b and 2f was investigated via UV–vis spectroscopy, LC–HRMS and NMR spectroscopy. Compound 2b represents the core structure of the azastilbenes investigated, whereas in 2f the influence of ortho methylation was intended to be examined. For UV–vis spectroscopy 50 µM solutions in 5% DMSO (v/v) in enzyme assay buffer were used, as this reflects the enzyme assay conditions. However, for LC-HRMS and NMR analysis, a higher concentration of 10 mM in methanol was necessary to receive reliable chromatograms and spectra.
LC–HRMS analysis provided deeper insights and clarified the differential behaviour observed in the UV–vis spectra of 2b and 2f after UV irradiation. As anticipated, UV irradiation lead to E→Z isomerization of the C=C double bond in both compounds. […] Unfortunately, the amount of photoisomerization was only moderate, since after 100 minutes of continuous irradiation still substantial amounts of the (E)-isomers were present in the mixtures (Figure 3). Proton NMR analysis implied photostationary states comprising a relative percentage of 45% (Z)-2b and 57% (Z)-2f, respectively after 100 minutes of 254 nm irradiation. The NMR spectra can be found in Supporting Information File 1.
Photochemistry: All photoisomerization experiments were conducted under ruby light of 630 nm. […]

[5] = percent inhibition relative to controls

Cc1cc(O)cc(C)c1/C=C/c1cncc(C(N)=O)c1 [Compound 2a, reference compound]
inhibition at 50 µM [1, 5]: 27% | IC50 [2]: 24.6 ± 2.8 µM | IC50 [3]: 41.7 ± 2 µM

NC(=O)c1cncc(/C=C/c2ccccc2)c1 [Compound 2b, (E)-5-Styrylnicotinamide]
inhibition at 10 µM [1, 5]: 71% | IC50 [2]: 8.7 ± 0.2 µM | inhibition at 50 µM [3]: 89% | relative percentage of (Z)-isomer in photostationary state [4]: 45%

NC(=O)c1cncc(/C=C/c2ccc(F)cc2)c1 [Compound 2c, (E)-5-(4-Fluorostyryl)nicotinamide]
inhibition at 100 µM ([1]; @ 100 µM, percent inhibition relative to controls): 51% | IC50 [2]: ~7 µM and 6.6 µM | IC50 [3]: 7.5 ± 0.9 µM

COc1ccc(/C=C/c2cncc(C(N)=O)c2)cc1 [Compound 2d]
inhibition at 10 µM [1, 5]: 51% | inhibition at 10 µM [2]: 64% | inhibition at 50 µM [3]: 90%

NC(=O)c1cncc(/C=C/c2cccc(OCc3ccccc3)c2)c1 [Compound 2e]
inhibition at 50 µM [1, 5]: 61% | inhibition at 50 µM [2]: 69% | inhibition at 50 µM [3]: 60%

COc1cc(C)c(/C=C/c2cncc(C(N)=O)c2)c(C)c1 [Compound 2f]
inhibition at 10 µM [1, 5]: 26% | inhibition at 10 µM [2]: 21% | inhibition at 50 µM [3]: 79% | relative percentage of (Z)-isomer in photostationary state [4]: 57%

NC(=O)c1cncc(/C=C/c2ccc3c(c2)OCO3)c1 [Compound 2g]
inhibition at 50 µM [1, 5]: 52% | inhibition at 50 µM [2]: 62% | inhibition at 50 µM [3]: 87%

NC(=O)c1cncc(/C=C/c2cccc(NC(=O)c3ccc(OCc4ccccc4)cc3)c2)c1 [Compound 2h]
Sirt1 inhibition [1]: n.i. | inhibition at 10 µM [2]: 9% | Sirt3 inhibition [3]: n.i.

NC(=O)c1cncc(C2=Cc3ccccc3CC2)c1 [Compound 4a]
Sirt1 inhibition [1]: complete loss of activity and n.i. | inhibition at 10 µM [2]: 48% | inhibition at 10 µM [3]: 38%

NC(=O)c1cncc(-c2ccc3ccccc3c2)c1 [Compound 4b]
Sirt1 inhibition [1]: complete loss of activity and n.i. | inhibition at 10 µM [2]: 45% | inhibition at 10 µM [3]: 38%

NC(=O)c1cnc2c(ccc3ccccc32)c1 [Compound 8a]
Sirt1 inhibition [1]: complete inactivity and n.i. | Sirt2 inhibition ([2]; n.i. = no inhibition detected, tested at 100 µM, 50 µM and 10 µM): complete inactivity and n.i. | Sirt3 inhibition [3]: complete inactivity and n.i. | melting point: 276.8 °C

Source: publication PMC6774072, “Azologization and repurposing of a hetero-stilbene-based kinase inhibitor: towards the design of photoswitchable sirtuin inhibitors” (Beilstein Journal of Organic Chemistry, 2019)
